These results are taken from ChEMBL document CHEMBL1157822, “Synthesis and SAR of novel isoquinoline CXCR4 antagonists with potent anti-HIV activity” (Bioorg Med Chem Lett, 2010).

In data set [1] the test system is Human immunodeficiency virus 1. Put plainly: Antiviral activity against HIV1 3B infected in human HOS cells expressing human CXCR4/CCR5/CD4/pHIV-LTR luciferase assessed as inhibition of viral infection to cells. The format is functional, organism-based. To be noted: Human immunodeficiency virus 1, 3B.
Data set [2] in a line: Cytotoxicity against human HOS cells expressing human CXCR4/CCR5/CD4/pHIV-LTR luciferase. It is filed as cell-based.
Data set [3] is described as follows: Volume of distribution in rat at 1 mg/kg, iv. Also on record: dose 1 mg/kg, route intravenous. The note with it: in vivo. It is filed as ADME, organism-based.
The nature of data set [4]: Oral bioavailability in rat at 3 mg/kg. The format is ADME, organism-based. The note with it: in vivo.
Data set [5] in a line: Clearance in rat at 1 mg/kg, iv. Also noted: dose 1 mg/kg, route intravenous. The format is ADME, organism-based. To be noted: in vivo.
Data set [6] in a line: Half life in rat at 1 mg/kg, iv. The format is ADME, organism-based. Also on record: dose 1 mg/kg, route intravenous. To be noted: in vivo.
Data set [7] has as its target T1, C-X-C chemokine receptor type 4 (Homo sapiens, UniProt P61073). As to the kind of experiment: Antagonist activity at human CXCR4 expressed in HEK293 cells. The format is functional, cell-based.
The target in data set [8] is T1, C-X-C chemokine receptor type 4. Put plainly: Binding affinity to human CXCR4 expressed in HEK293 cells. The format is cell-based.

Active and inactive are the calls of the source. No cut-off for these calls is given here.

T1 sequence (P61073 whole entry): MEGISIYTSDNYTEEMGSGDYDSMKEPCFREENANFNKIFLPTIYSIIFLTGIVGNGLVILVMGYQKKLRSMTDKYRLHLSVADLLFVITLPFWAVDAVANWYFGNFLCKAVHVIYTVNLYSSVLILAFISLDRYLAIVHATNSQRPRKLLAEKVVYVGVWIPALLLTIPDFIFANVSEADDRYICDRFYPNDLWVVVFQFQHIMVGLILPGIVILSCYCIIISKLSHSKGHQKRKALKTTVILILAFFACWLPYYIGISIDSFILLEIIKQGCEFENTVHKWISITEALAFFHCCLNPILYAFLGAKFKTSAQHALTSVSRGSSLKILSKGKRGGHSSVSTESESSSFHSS

For the compound `CN1CCC[C@@H]1C(=O)NCc1c(CN(C)[C@H]2CCCc3cccnc32)ncc2ccccc12`, the IC50 – broadly, the concentration that inhibits the measured activity by half – in data set [1] worked out at 12 nM. Also, it took 690 nM to reach half-maximal cytotoxicity in data set [2] (CC50).
The matching figures for `CN(C)Cc1c(CN(C)[C@H]2CCCc3cccnc32)ncc2ccccc12`: 48 nM and 5900 nM.
Take `CN(Cc1ncc2ccccc2c1CCCN)[C@H]1CCCc2cccnc21`: in data set [1], the IC50 is 12 nM. In addition, in data set [2], the CC50 (as a rule, the concentration that lowers cell viability or growth by half) turned out to be 1000 nM.
On the same counts, the results for `CN1CCC[C@H]1C(=O)NCc1c(CN(C)[C@H]2CCCc3cccnc32)ncc2ccccc12` are 44 nM and 540 nM.
On to `CN(Cc1ncc2ccccc2c1CCCNS(C)(=O)=O)[C@H]1CCCc2cccnc21`, for which the Vd (in general, the apparent volume that relates the amount in the body to the concentration in plasma or blood) in data set [3] was determined as 1.4 L/kg. In addition, the IC50 in data set [1] was 16 nM. In addition, in data set [4], the bioavailability – broadly, the share of a dose that reaches the circulation, judged against a reference dose that is usually intravenous – worked out at 4%. Further, in data set [5], the clearance (usually the rate of elimination divided by the concentration) came to 9.5 mL/min/kg. For the same compound, in data set [2], half-maximal cytotoxicity (CC50) was put at 690 nM. Also, in data set [6], the half-life (usually how long it takes for the measured level to halve) is 5.8 h.
On to `NCCCCN(Cc1nccc2ccccc12)C1CCCc2cccnc21` (racemic), for which the IC50 in data set [1] worked out at 11 nM. The CC50 in data set [2] was found to be 8200 nM.
For the compound `NCCCCN(Cc1nc2ccccc2s1)C1CCCc2cccnc21` (racemic), the IC50 in data set [1] came out at 200 nM. The midpoint of cytotoxicity in data set [2], the CC50, lay at 13000 nM.
Take `CN(Cc1cc2ccccc2cn1)[C@H]1CCCc2cccnc21`: the IC50 in data set [1] was found to be 160 nM. This compound also registered a CC50 in data set [2] of 650 nM.
Consider `CN(Cc1ncc2ccccc2c1CNS(C)(=O)=O)[C@H]1CCCc2cccnc21`, for which the IC50 in data set [1] was 41 nM. This compound also yielded a CC50 in data set [2] of 2000 nM.
As for `NCCCCN(Cc1cn2ccccc2n1)C1CCCc2cccnc21` (racemic), in data set [1], the IC50 came out at 42 nM. The compound also returned a CC50 in data set [2] of more than 20000 nM.
For the compound `CN(Cc1ncc2ccccc2c1CCC#N)[C@H]1CCCc2cccnc21`, in data set [1], the IC50 came out at 21 nM. The compound further showed a CC50 in data set [2] of 950 nM.
Consider `CN(Cc1ncc2ccccc2c1CNC(=N)N)[C@H]1CCCc2cccnc21`, for which the Vd in data set [3] was determined as 9 L/kg. In addition, in data set [1], the half-maximal inhibitory concentration (IC50) stood at 20 nM. For the same compound, the bioavailability in data set [4] came out at 0%. The same compound showed a clearance in data set [5] of 16 mL/min/kg. Also, the midpoint of cytotoxicity in data set [2], the CC50, lay at 9000 nM. In data set [6], the half-life is 12 h.
Take `NCCCCN(Cc1ccc2ccccc2n1)C1CCCc2cccnc21` (racemic): the IC50 in data set [1] was 34 nM. For the same compound, in data set [2], the CC50 is 12000 nM.
Regarding `CN(C)C(=O)NCCCc1c(CN(C)[C@H]2CCCc3cccnc32)ncc2ccccc12`, the Vd in data set [3] amounted to 1.7 L/kg. Besides, the IC50 in data set [1] is 38 nM. The compound also had a bioavailability in data set [4] of 20%. Moreover, the clearance in data set [5] worked out at 16 mL/min/kg. The compound also came in with a CC50 in data set [2] of 750 nM. This compound also had a half-life in data set [6] of 3.1 h.
For the compound `Cn1ccnc1CN(CCCCN)C1CCCc2cccnc21` (racemic), in data set [1], the IC50 came out at 120 nM. For the same compound, in data set [2], the CC50 is more than 20000 nM.
In the case of `CN(Cc1ncc2ccccc2c1C#N)[C@H]1CCCc2cccnc21`, the IC50 in data set [1] turned out to be 72 nM. Further, in data set [2], the CC50 stood at 1300 nM.
In the case of `NCCCCN(Cc1cccnc1)C1CCCc2cccnc21` (racemic), the IC50 in data set [1] was more than 20000 nM. Besides, in data set [2], the CC50 is more than 20000 nM.
`Cn1cncc1CN(CCCCN)C1CCCc2cccnc21` (racemic): the IC50 in data set [1] was more than 20000 nM. Besides, the CC50 in data set [2] is more than 20000 nM.
Turning to `NCCCCN(Cc1nccs1)C1CCCc2cccnc21` (racemic), in data set [1], the IC50 was 340 nM. The same compound registered a CC50 in data set [2] of 9700 nM.
Turning to `NCCCCN(Cc1nc2ccccc2[nH]1)C1CCCc2cccnc21` (racemic), the result in data set [7] was Active. The IC50 in data set [1] came out at 23 nM. Further, the CC50 in data set [2] is 13000 nM.
On to `NCCCCN(Cc1cc2ccccc2cn1)C1CCCc2cccnc21` (racemic), for which the IC50 in data set [1] was 12 nM. The compound also came in with a CC50 in data set [2] of 13000 nM.
In the case of `CN(Cc1ncc2ccccc2c1CN)[C@H]1CCCc2cccnc21`, in data set [1], the IC50 was determined as 27 nM. Besides, the midpoint of cytotoxicity in data set [2], the CC50, lay at 3100 nM.
`CN(C)CC(=O)NCc1c(CN(C)[C@H]2CCCc3cccnc32)ncc2ccccc12` registered a volume of distribution (Vd) in data set [3] of 1.5 L/kg. Also, the outcome in data set [7] was Active. The values for the IC50 in data set [8] and in data set [1] were 16 nM and 12 nM, respectively. For the same compound, the bioavailability in data set [4] came out at 10%. Also, the clearance in data set [5] worked out at 11 mL/min/kg. The compound also returned a CC50 in data set [2] of 480 nM. For the same compound, the half-life in data set [6] is 1.5 h.
For the compound `NCCCCN(Cc1ccccn1)C1CCCc2cccnc21` (racemic), the IC50 in data set [1] was found to be 70 nM. This compound also yielded a CC50 in data set [2] of 11000 nM.
`CN(C)CCCc1c(CN(C)[C@H]2CCCc3cccnc32)ncc2ccccc12` yielded a Vd in data set [3] of 2.9 L/kg. In addition, the outcome in data set [7] was Active. In addition, the IC50 in data set [8] was determined as 3.4 nM; in data set [1] it was 5 nM. For the same compound, the bioavailability in data set [4] came to 6%. Also, the clearance in data set [5] was 6.1 mL/min/kg. This compound showed a CC50 in data set [2] of 650 nM. For the same compound, the half-life in data set [6] is 2.9 h.
In the case of `CN(Cc1ncc2ccccc2c1CCCNC(=N)N)[C@H]1CCCc2cccnc21`, in data set [1], the IC50 is 17 nM. This compound also had a CC50 in data set [2] of 6500 nM.
